Data on six molecules can be found in patent US20240058390A1, “WNT+ ADIPOCYTES, EXOSOMES FROM WNT+ ADIPOCYTES, AND METHODS OF MAKING AND USING THEM” (The Administrators of the Tulane Educational Fund, priority 2020, published 2024).

Entries after “also recorded” stand apart in the source; their conditions may differ.

One assay has as its system Wnt/β-catenin signaling. In words: Wnt/β-catenin signaling activity (TCF/Lef:H2B-GFP reporter) in SVF precursors under pro-adipogenic conditions. The settings on record: DKK1 100 ng/ml, IWP-2 5 μM, LF3 10 and 20 μM. Format: cell-based, mouse. The method, then:
(§1) Immortalized cell lines, isolated adipose SVF cells, MEFs, and BMSCs were seeded into plates at the density of 4×10^3 cells/cm^2 (cell line and SVF) or 1.5×10^4 cells/cm2 (BMSCs) in MesenCult™ Expansion medium (Stemcell Technologies Inc., Cambridge, MA, catalog no. 05513), and treated with MesenCult™ Adipogenic Differentiation cocktail (Stemcell, catalog no. 05507) with 90% cell confluence. Cells were cultured for various days after pro-adipogenic induction prior to being harvested for following experiments. Adipogenesis was examined by lipid staining. Briefly, differentiated adipocytes were washed twice with PBS, fixed in 4% paraformaldehyde (PFA) for 15 min, and then stained with Oil Red O solution (Sigma-Aldrich, catalog no. 01391) for 20 min at ambient temperature or with 20 nM BODIPY (dipyrrometheneboron difluoride, catalog no. D3835, Thermo Fisher Scientific) in PBS for 15 min at 37° C. Subsequently, cells were washed with PBS before imaging.
(§2) For inhibition studies, SVF cells or precursor cell lines, 3 days after pro-adipogenic induction, were treated with each of the following molecules for 4 days: DKK1 (product 5897-DK-010, R&D Systems, Minneapolis, MN) (100 ng/ml), IWP-2 (catalog no. 72122, Stemcell), (5 μM), LF3 (catalog no. 58474, Selleck Chemicals) (10 and 20 μM, or 50 μM on cell lines), and LY294002 (catalog no. S1105, Selleck Chemicals) (2 and 14 μM), along with vehicles (PBS or DMSO).

Another assay deals with Wnt^+ adipocytes in iWAT. In words: β3-adrenoceptor agonist treatment of T/L-GFP mice, beiging in iWAT. Format: in vivo, mouse. The settings on record: 1 mg/kg i.p. daily for 4 days. The method, then: (§3) For cold-exposure experiments, mice were singly caged and exposed to cold temperature at 6° C. for 2, 4, or 14 consecutive days. For β3-adrenoceptor agonist treatment, adult male mice were injected intraperitoneally with CL316,243 (CAS No. 138908-40-4, product C5976, Sigma-Aldrich Inc., St. Louis, MO) at 1 mg/kg body weight daily for 4 consecutive days prior to sample collection. Age-matched male littermates were treated intraperitoneally with saline as vehicle controls. […]
(§4) Adipose tissue was fixed in 4% PFA at 4° C. overnight, followed by dehydration through serial ethanol. […] After washing, sections were processed with a Vector TrueVIEW™ Autofluorescence Quenching Kit treatment (Vector Laboratories, Inc, Burlingame, CA, SP-8400) for 5 min to remove unspecific fluorescence on sections due to red blood cells and structural elements such as collagen and elastin. […] Images of tissue samples were captured using a Nikon confocal Microscope A1 HD25 (Nikon Instruments Inc., Melville, NY) and analyzed using ImageJ software (Version 1.51S). For quantification of Wnt^+ adipocytes, we randomly chose 12-18 images from each tissue of one mouse. Microscopic pictures (10× objective) were taken, and the total cell number and the number of GFP^+ adipocytes within each image were counted.

For assay [1], the system named is Wnt^+ adipocytes in iWAT of T/L-DTA mice. The assay is described as follows: Tamoxifen-induced ablation of Wnt+ adipocytes in T/L-DTA mice. The assay is classed as in vivo, mouse. The settings on record: 150 mg/kg i.p., 2 days. The method, then:
To ablate Wnt^+ adipocytes in vivo, Fabp4-Flex-DTA mice were crossed with Tcf/Lef-CreERT2 mice to generate Tcf/Lef-CreERT2;Fabp4-Flex-DTA mice (“T/L-DTA” mice), which received 2-day tamoxifen administration via intraperitoneal injection at the dose of 150 mg/kg body weight. […] Forty-eight hours later, T/L-DTA mice and tamoxifen-treated littermate controls (Fabp4-Flex-DTA mice) were housed at 6° C. for 2 days, respectively.

Assay [2] deals with Wnt^+ adipocytes in iWAT and iBAT. In words: mTOR antagonist treatment of T/L-GFP mice, quantification of Wnt+ adipocytes. Format: in vivo, mouse. Particulars: T/L-GFP adult mice, 600 μg/kg i.p. daily for 5 days, vs vehicle. The method, then: as §3, §4
For the next assay, the system named is iBAT-derived SVF cells. The assay is described as follows: Adipogenic maturation of SVF-derived adipocytes (Oil Red O staining). The assay is classed as cell-based, mouse. Particulars: LF3, dose-dependent. The method, then: as §1, with “imaging. […]” for “imaging.”
Assay [3] has as its system Wnt^+ adipocytes induced from GFPpos-1 and GFPpos-2 cell lines. In words: Treatment of induced Wnt+ adipocytes from GFPpos-1 and GFPpos-2 cell lines (GFP signal, cell death). The assay is classed as cell-based, mouse.
Excerpt: (§5) SVFs of iBAT from adult TCF/Lef:H2B-GFP male mice were separated and collected as described above. Cells at passage 1 were transduced with pUltra-hot-LT LV particles. Two days after transduction, cells were purified by performing FACS to remove mCherry- and Lin+ cells Immortalized cells were subjected to clonal selection through serial limited dilutions. The expression of GFP in cell colonies under pro-adipogenic induction was used as a readout for the accurate establishment of Wnt+ (>95%) and Wnt− (Wnt+=0%) adipocyte cell lines, respectively.
as §1, §2

The test system of assay [4] is Wnt^− adipocytes induced from GFPneg precursor cell lines. The assay is described as follows: Treatment of induced Wnt− adipocytes from GFPneg precursor cell lines (viability, maturation). The assay is classed as cell-based, mouse.
Excerpt: as §5, §1, §2

Assay [5] has as its system uninduced Wnt^+ and Wnt^− precursor cell lines. In words: Treatment of uninduced Wnt+ and Wnt− precursor cell lines. Format: cell-based, mouse. The settings on record: same dose of LF3.
Excerpt: as §5
[…] S1105, Selleck Chemicals) (2 and 14 μM), along with vehicles (PBS or DMSO).

For `Cc1ccc2nc(NC(=O)CSc3nc4c(c(=O)n3-c3ccccc3)SCC4)sc2c1` [1WP-2, IWP-2], in the assay with Wnt/β-catenin signaling, the “inhibition of Wnt/β-catenin signaling activity” value (“inhibition” below) is “failed to”.
Consider `C[C@H](Cc1ccc2c(c1)OC(C(=O)[O-])(C(=O)[O-])O2)NC[C@H](O)c1cccc(Cl)c1.[Na+].[Na+]` [CL316,243], for which the “proportion of Wnt+ adipocytes in iWAT” value with Wnt^+ adipocytes in iWAT is reported as “unaltered”.
On to `CC/C(=C(\c1ccccc1)c1ccc(OCCN(C)C)cc1)c1ccccc1` [tamoxifen], for which the “ablation of Wnt+ adipocytes in iWAT” value in assay [1] is “about 87%”.
For `CO[C@H]1C[C@@H]2CC[C@@H](C)[C@@](O)(O2)C(=O)C(=O)N2CCCC[C@H]2C(=O)O[C@H]([C@H](C)C[C@@H]2CC[C@@H](OC(=O)C(C)(CO)CO)[C@H](OC)C2)CC(=O)[C@H](C)/C=C(\C)[C@@H](O)[C@@H](OC)C(=O)[C@H](C)C[C@H](C)/C=C/C=C/C=C/1C` [temsirolimus, Temsirolimus], in assay [2], the “Wnt+ adipocyte numbers in iBAT” value was “dramatically reduced Wnt^+ adipocyte numbers” and the “Wnt+ adipocyte numbers in iWAT” value was “dramatically reduced Wnt^+ adipocyte numbers”.
As to LF3, the “adipogenic maturation of SVF-derived adipocytes” value in the assay with iBAT-derived SVF cells is recorded as “impaired/delayed adipogenic maturation”. For the same molecule, in assay [3] (50 μM LF3, first day), the “GFP expression in induced Wnt+ adipocytes” value was “quenched GFP expression; also recorded: GFP signals are significantly quenched”. Moreover, the “cell number of induced Wnt+ adipocytes” value in assay [3] (50 μM LF3, one day) is listed as “obviously reduced cell numbers”. For the same molecule, the “cell death of induced Wnt+ adipocytes” value in assay [3] (50 μM LF3, second day) was “massive cell death; also recorded: Remarkable cell death”. Also, the “inhibition” value with Wnt/β-catenin signaling is recorded as “did inhibit”. In addition, in assay [4] (LF3), the “cell viability of induced Wnt− adipocytes” value is recorded as “did not affect cell viability” and the “maturation of Wnt− adipocytes” value was “slowed down the maturation”. Also, the “adipogenic capacity of LF3-treated Wnt− adipocytes after return to normal pro-adipogenic medium” value in assay [4] (LF3, rescue experiment) is “resumed full adipogenic capacity”. Further, the “impact on uninduced precursor cell lines” value in assay [5] is “showed no impacts”.

B1: DKK1: canonical Wnt receptor antagonist (R&D Systems 5897-DK-010) (protein, UniProt O94907 32-266, looked up)
Dickkopf-related protein 1: TLNSVLNSNAIKNLPPPLGGAAGHPGSAVSAAPGILYPGGNKYQTIDNYQPYPCAEDEECGTDEYCASPTRGGDAGVQICLACRKRRKRCMRHAMCCPGNYCKNGICVSSDQNHFRGEIEETITESFGNDHSTLDGYSRRTTLSSKMYHTKGQEGSVCLRSSDCASGLCCARHFWSKICKPVLKEGQVCTKHRRKGSHGLEIFQRCYCGEGLSCRIQKDHHQASNSSRLHTCQRH
In the case of B1, the “inhibition” value with Wnt/β-catenin signaling is “failed to”.
